Data from patent US20220091128A1, “SYSTEM AND METHOD FOR LIGAND THERMAL ANALYSIS” (Portland State University, priority 2019, published 2022).
Like-named read-outs stand apart in the source and are kept apart here.

Key:
HSA [1] = molecular target: T1, HSA (Homo sapiens, UniProt P02768); set-up: purchased Sigma Aldrich (St. Louis, Mo.); conditions: cited from earlier work; for Kd: binding to HSA, read-out: Average Literature KD; for reported HSA binding activity: literature report
HSA [2] = molecular target: T1, HSA; test: Drug screening: HSA binding constants from DSC thermograms; conditions: for Measured HSA binding (cell spanning the measured KD columns; same in text): result in words
Procedure: Ligand solubilization: Stock solutions of aqueous insoluble ligands in organic solvents were pipetted into microcentrifuge tubes to yield a desired amount of drug for a 1 mL solution. The microcentrifuge tubes were placed into a vacuum concentrator (Savant SpeedVac Model SC100), and the organic solvents were evaporated, resulting in solid drug in the tube. To each tube, HSA is added at a predetermined concentration with standard buffer to provide a 1 mL working solution.
In total binding of 28 drug compounds to HSA was examined by obtaining thermograms.

human plasma = test: DSC thermograms of plasma with ligand; type: binding
[3] = molecular target: T2, human serum albumin (HSA) (Homo sapiens, UniProt P02768); test: DSC thermograms of HSA with ligand (single-ligand titration); type: binding
T2 construct: purchased Sigma Aldrich (St. Louis, Mo.)
Procedure: Chemicals and reagents: Plasma and highly pure plasma proteins are sourced from commercial suppliers. Standard reagents are sourced from commercial suppliers. Samples are prepared in standard phosphate-buffered saline (PBS) buffer. In some examples, human plasma and serum albumin were purchased from Sigma Aldrich (St. Louis, Mo.) and received as lyophilized powder. Plasma was product number: P9523, lot number: SLBT0202. […] In vivo, the standard state of HSA is most certainly bound to some extent by fatty acids. Plasma and HSA stock solutions were prepared by re-suspending the appropriate amount of powder in buffer. Samples were prepared by diluting stock solutions to a final concentration of 1.5-2.0 mg/mL.
Protein concentration was approximately 2 mg/ml.
In a DSC melting experiment, the supplemental power supplied to the sample cell (in μW) necessary to keep the sample temperature equal to the reference temperature is continually monitored. […] Supplemental power is directly related to the molar heat capacity at constant pressure, ΔCp. Curves of ΔCp versus T provide an evaluation of the thermodynamic enthalpy. To enable direct comparisons in some cases, power (μW) versus T plots (instead of ΔCp versus T curves) were used for the following reason.
Analysis of DSC data was performed using the Nanoanalyze software package, version 3.7.5, provided by T.A. Instruments. […]
From the thermograms, semi-quantitative evaluations of the thermodynamic parameters ΔHcal, ΔScal and ΔGcal(37° C.) were obtained at each ligand concentration.
These curves were constructed from titrations of DM1 with HSA. The Tm and ΔGcal(37° C.) were evaluated. The values were normalized against standard HSA and plotted versus ligand concentration to provide the dose curves in FIG. 20A (Tm) and FIG. 20B (ΔGcal(37° C.)).
Natural HSA samples were prepared at pH 6.0 and pH 8.0 and examined by DSC. […] From DSC melting curves thermodynamic parameters for HSA/ligand mixtures were evaluated.

[4] = Average Measured KD, binding to HSA; single value or value marked 1)
[5] = Measured KD From TM, binding to HSA; single value or value marked 1)
[6] = Measured KD from ΔG^037, binding to HSA; single value or value marked 1)
[7] = read-out: Average Measured KD; binding to HSA; single value or value marked 1)
[8] = read-out: Measured KD From TM; binding to HSA; single value or value marked 1)
[9] = read-out: Measured KD from ΔG^037; binding to HSA; single value or value marked 1)

T1 sequence (P02768 25-609): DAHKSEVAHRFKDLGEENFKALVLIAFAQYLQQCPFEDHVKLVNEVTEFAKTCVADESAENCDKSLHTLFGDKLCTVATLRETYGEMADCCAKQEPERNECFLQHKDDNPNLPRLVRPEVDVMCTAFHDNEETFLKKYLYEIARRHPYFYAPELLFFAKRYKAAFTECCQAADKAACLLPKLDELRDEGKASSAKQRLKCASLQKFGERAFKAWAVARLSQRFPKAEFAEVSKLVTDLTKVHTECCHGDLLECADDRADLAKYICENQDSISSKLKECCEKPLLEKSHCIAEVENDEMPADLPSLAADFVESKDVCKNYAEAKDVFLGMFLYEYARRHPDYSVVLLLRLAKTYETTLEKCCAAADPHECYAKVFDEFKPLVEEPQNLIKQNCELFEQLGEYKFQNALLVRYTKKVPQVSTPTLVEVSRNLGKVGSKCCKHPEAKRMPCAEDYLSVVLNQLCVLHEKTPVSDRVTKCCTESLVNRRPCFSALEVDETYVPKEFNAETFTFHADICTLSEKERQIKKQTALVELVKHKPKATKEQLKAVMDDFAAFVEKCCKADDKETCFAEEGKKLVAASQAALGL
T2 sequence (P02768 25-609): as above

Row | Compound | Kd (HSA [1]) [µM] | Kd (HSA [2]; [4]) [µM] | Kd (HSA [2]; [5]) [µM] | Kd (HSA [2]; [6]) [µM] | other results
1 | O=C1OC2(c3ccc(O)cc3Oc3cc(O)ccc32)c2ccccc21 [Fluorescein (FSC), Fluorescein] | 212 | 68 | 79.8 | 56.2 | –
2 | COCCc1ccc(OCC(O)CNC(C)C)cc1 (stereo not drawn) [Metoprolol (MEP), Metoprolol] | 74.1 | 11.1 | 3.04 | 19.2 | –
3 | C[C@H](CS)C(=O)N1CCC[C@H]1C(=O)O [Captopril (CAP), Captopril] | 192 | 3.75 | 5.44 | 2.05 | –
4 | CCCCCc1cc(O)c2c(c1)OC(C)(C)[C@@H]1CCC(C)=C[C@@H]21 [Δ9-tetrahydrocannabinol (THC), Δ9-tetrahydrocannabinol] | ≤ 0.1 | – | – | – | Kd (HSA [2]; [7]): 0.035 µM; Kd (HSA [2]; [8]): 0.025 µM; Kd (HSA [2]; [9]): 0.048 µM
5 | CC(O)CN1CCN(CC(=O)[O-])CCN(CC(=O)[O-])CCN(CC(=O)[O-])CC1.[Gd+3] (stereo not drawn) [Prohance (PRO), gadoteridol] | – | – | – | – | reported HSA binding activity (HSA [1]): not display HSA binding activity
6 | C[CH2][Hg][S]c1ccccc1C(=O)[O-].[Na+] [Thimerosal (TMS), Thimerosal] | 339 | – | – | – | –
7 | O=C([O-])CN(CCN(CC(=O)[O-])CC(COP(=O)(O)OC1CCC(c2ccccc2)(c2ccccc2)CC1)N(CC(=O)[O-])CC(=O)[O-])CC(=O)O.[Gd+3].[Na+] (stereo not drawn) [Ablavar (AB)] | 60.4 | – | – | – | –
8 | C=CC1=C(C)/C(=C/c2[nH]c(Cc3[nH]c(/C=C4\NC(=O)C(C)=C4C=C)c(C)c3CCC(=O)O)c(CCC(=O)O)c2C)NC1=O [Bilirubin (BIL), Bilirubin] | 0.074 | 0.33 | 0.41 | 0.25 | –
9 | CC(NC(C)(C)C)C(=O)c1cccc(Cl)c1 (stereo not drawn) [Bupropion (BPR), Bupropion] | 172 | 0.25 | 0.28 | 0.21 | Kd (HSA [2]; Average Measured KD, binding to HSA; second value marked 2)): 19.5 µM; Kd (HSA [2]; Measured KD From TM, binding to HSA; second value marked 2)): 28.8 µM; Kd (HSA [2]; Measured KD from ΔG^037, binding to HSA; second value marked 2)): 10.2 µM
10 | CCN(CC)CCCC(C)Nc1ccnc2cc(Cl)ccc12 (stereo not drawn) [CQ, Chloroquine] | – | – | – | – | effect on fibrinogen melting transition peak (52° C.) of the plasma thermogram (human plasma): significant perturbation; Implied number of sites [3]: 1
11 | O=C([O-])CN1CCN(CC(=O)[O-])CCN(CC(=O)O)CCN(CC(=O)[O-])CC1.[Gd+3] [Dotarem (DOTA), gadoteric acid] | – | – | – | – | reported HSA binding activity (HSA [1]): not have any measurable HSA binding activity; Measured HSA binding (cell spanning the measured KD columns; same in text) (HSA [2]): No Binding Detected; Measured HSA binding (cell spanning the measured KD columns; same in text) (HSA [2]; listed as Dotarem): no binding was observed
12 | CNC[C@H](O)[C@@H](O)[C@H](O)[C@H](O)CO.CNC[C@H](O)[C@@H](O)[C@H](O)[C@H](O)CO.O=C([O-])CN(CCN(CC(=O)[O-])CC(=O)O)CCN(CC(=O)O)C(COCc1ccccc1)C(=O)[O-].[Gd+3] (stereo not drawn) [Multihance (MH)] | 1950 | – | – | – | Kd (HSA [2]; [7]): 1340 µM; Kd (HSA [2]; [8]): 1380 µM; Kd (HSA [2]; [9]): 1290 µM
